From patent US11420958B2, “Aryl and heteroaryl substituted indole compounds” (BRISTOL-MYERS SQUIBB COMPANY, priority 2017, dated 2022) come the findings set out here.

Type in all cases: cell-based
One assay concerns the target human TLR7 (Homo sapiens (Human), UniProt Q9NYK1). Description: TLR7 inhibition reporter assay (HEK-Blue, SEAP). The conditions noted are these: HEK-Blue cells overexpressing human TLR7, gardiquimod 7.5 μM stimulation. A digest of the protocol:
(§1)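 After 30 min room-temperature pre-incubation with compound (0.05 nM–50 μM), reporter HEK-Blue lines were activated by ODN2006 5 nM for TLR9, R848 15.9 μM for TLR8 or gardiquimod 7.5 μM for TLR7. SEAP detected after 22 h, 37 °C; inhibition scaled between agonist+DMSO wells and known-inhibitor control.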
(Reporter assays use an easily measured gene product as a stand-in for the process of interest.)

Another assay addresses human TLR9 (Homo sapiens (Human), UniProt Q9NR96). Description: TLR9 inhibition reporter assay (HEK-Blue, SEAP). Conditions: HEK-Blue cells overexpressing human TLR9, ODN2006 5 nM stimulation. The essentials:
as §1

A further assay has as its target human TLR8 (Homo sapiens (Human), UniProt Q9NR97). Put plainly: TLR8 inhibition reporter assay (HEK-Blue, SEAP). The conditions noted are these: HEK-Blue cells overexpressing human TLR8, R848 15.9 μM stimulation. A digest of the protocol:
as §1

human TLR9, sequence (Q9NR96 26-1032): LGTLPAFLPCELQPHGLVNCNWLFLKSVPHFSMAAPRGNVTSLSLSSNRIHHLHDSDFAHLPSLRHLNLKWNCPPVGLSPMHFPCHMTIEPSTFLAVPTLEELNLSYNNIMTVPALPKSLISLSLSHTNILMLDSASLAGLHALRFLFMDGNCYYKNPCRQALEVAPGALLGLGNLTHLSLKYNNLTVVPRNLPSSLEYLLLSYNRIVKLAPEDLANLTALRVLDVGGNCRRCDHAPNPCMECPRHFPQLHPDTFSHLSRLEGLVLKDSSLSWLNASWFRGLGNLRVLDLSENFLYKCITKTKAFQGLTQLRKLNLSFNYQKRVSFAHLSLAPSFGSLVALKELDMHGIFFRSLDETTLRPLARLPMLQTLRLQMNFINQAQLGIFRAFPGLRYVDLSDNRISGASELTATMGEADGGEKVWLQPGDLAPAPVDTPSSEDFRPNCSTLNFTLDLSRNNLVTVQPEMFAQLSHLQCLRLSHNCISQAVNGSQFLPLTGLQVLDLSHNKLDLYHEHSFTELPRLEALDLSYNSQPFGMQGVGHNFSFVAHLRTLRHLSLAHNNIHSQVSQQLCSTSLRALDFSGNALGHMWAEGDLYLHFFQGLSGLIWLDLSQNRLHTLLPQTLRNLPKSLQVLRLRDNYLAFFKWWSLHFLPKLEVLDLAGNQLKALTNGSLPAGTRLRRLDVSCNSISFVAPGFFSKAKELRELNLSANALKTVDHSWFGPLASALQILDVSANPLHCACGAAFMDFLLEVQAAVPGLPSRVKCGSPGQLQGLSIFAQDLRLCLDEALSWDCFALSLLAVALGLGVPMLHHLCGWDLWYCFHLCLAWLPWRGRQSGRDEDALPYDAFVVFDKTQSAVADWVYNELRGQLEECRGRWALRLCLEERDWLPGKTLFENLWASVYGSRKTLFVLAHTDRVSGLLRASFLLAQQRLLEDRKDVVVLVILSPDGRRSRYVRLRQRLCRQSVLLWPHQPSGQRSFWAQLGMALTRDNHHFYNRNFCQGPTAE
human TLR7, sequence (Q9NYK1 27-1049): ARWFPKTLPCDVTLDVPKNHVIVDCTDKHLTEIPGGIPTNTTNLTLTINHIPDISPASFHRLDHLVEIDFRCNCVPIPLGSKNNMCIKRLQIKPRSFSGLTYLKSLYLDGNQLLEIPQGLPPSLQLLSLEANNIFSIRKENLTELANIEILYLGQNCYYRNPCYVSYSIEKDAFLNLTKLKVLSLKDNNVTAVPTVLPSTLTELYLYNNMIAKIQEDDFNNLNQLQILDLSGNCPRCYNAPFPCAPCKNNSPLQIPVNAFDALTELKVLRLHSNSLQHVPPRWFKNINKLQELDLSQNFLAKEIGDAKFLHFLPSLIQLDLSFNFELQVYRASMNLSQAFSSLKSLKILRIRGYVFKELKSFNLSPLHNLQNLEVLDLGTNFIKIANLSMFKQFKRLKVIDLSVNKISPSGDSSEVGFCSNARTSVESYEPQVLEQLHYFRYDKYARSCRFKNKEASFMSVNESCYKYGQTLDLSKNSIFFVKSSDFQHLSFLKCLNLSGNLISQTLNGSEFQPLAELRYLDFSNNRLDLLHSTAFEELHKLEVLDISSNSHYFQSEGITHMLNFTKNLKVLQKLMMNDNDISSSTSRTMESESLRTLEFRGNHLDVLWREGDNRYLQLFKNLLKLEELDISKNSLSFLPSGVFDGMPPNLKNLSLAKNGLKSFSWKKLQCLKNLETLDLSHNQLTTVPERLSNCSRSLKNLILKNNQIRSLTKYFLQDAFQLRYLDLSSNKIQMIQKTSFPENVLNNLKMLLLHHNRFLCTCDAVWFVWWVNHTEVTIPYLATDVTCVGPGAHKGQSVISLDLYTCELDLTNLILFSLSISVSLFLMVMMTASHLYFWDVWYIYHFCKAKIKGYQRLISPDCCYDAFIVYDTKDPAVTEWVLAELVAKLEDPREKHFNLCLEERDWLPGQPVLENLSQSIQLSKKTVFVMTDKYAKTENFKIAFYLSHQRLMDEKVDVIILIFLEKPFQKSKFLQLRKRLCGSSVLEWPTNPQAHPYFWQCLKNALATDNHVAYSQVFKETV
human TLR8, sequence (Q9NR97 27-1041): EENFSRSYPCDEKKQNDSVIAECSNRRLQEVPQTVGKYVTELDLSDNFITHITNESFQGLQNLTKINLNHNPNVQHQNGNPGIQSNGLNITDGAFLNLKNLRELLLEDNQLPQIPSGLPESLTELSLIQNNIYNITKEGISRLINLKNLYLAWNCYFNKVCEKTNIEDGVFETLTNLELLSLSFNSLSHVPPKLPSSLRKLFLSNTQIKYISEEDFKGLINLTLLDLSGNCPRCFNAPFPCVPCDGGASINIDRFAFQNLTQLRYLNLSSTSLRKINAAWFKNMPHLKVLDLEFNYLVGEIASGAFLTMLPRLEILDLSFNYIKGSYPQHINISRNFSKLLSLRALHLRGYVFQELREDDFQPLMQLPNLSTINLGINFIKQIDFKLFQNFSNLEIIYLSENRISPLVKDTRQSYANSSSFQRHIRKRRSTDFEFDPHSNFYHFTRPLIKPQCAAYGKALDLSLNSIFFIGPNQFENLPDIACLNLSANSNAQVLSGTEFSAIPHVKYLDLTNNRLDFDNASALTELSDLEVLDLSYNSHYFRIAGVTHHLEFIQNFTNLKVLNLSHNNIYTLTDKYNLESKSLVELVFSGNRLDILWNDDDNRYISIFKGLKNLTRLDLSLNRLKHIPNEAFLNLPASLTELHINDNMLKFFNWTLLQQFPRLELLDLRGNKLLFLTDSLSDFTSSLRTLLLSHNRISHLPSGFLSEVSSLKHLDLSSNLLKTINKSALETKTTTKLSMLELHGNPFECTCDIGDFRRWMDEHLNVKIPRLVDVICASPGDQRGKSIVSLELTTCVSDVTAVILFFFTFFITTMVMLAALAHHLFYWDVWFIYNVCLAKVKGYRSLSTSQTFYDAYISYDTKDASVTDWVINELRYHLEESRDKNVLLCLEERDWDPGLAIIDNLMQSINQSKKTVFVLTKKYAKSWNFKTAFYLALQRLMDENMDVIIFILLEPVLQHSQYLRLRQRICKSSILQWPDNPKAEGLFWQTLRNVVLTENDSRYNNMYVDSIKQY

The term IC50 denotes the midpoint of a concentration-inhibition curve. Read a low IC50 as higher potency. Take `COc1ccc(-c2[nH]c3ccc(-c4nnc([C@H]5CCCNC5)o4)cc3c2C(C)C)cc1OC` [Example 52, (S)-2-(2-(3,4-dimethoxyphenyl)-3-isopropyl-1H-indol-5-yl)-5-(piperidin-3-yl)-1,3,4-oxadiazole]: the IC50 against human TLR7 worked out at 26 nM; against human TLR9, 770 nM; on human TLR8 it was 6 nM.
With `COc1ccc(-c2[nH]c3ccc(-c4nnc(C5CNC5)o4)cc3c2C(C)C)cc1OC` [Example 53, 2-(azetidin-3-yl)-5-(2-(3,4-dimethoxyphenyl)-3-isopropyl-1H-indol-5-yl)-1,3,4-oxadiazole], the IC50 against human TLR7 was found to be 381 nM; on human TLR9 it was 3010 nM; on human TLR8 it was 78 nM.
For `COc1ccc(-c2[nH]c3ccc(-c4nnc(C[C@H]5CCCCN5)o4)cc3c2C(C)C)cc1OC` [Example 54, (R)-2-(2-(3,4-dimethoxyphenyl)-3-isopropyl-1H-indol-5-yl)-5-(piperidin-2-ylmethyl)-1,3,4-oxadiazole] the same measures were 75 nM, 706 nM and 3.9 nM.
For `COc1ccc(-c2[nH]c3ccc(-c4nnc([C@@H]5CCCNC5)o4)cc3c2C(C)C)cc1OC` [Example 55, (R)-2-(2-(3,4-dimethoxyphenyl)-3-isopropyl-1H-indol-5-yl)-5-(piperidin-3-yl)-1,3,4-oxadiazole] the same measures were 32 nM, 1260 nM and 8.2 nM.
For `COc1ccc(-c2[nH]c3ccc(-c4nnc([C@@H]5CCCNC5)o4)cc3c2CC(F)(F)F)cc1OC` [Example 56, (R)-2-(2-(3,4-dimethoxyphenyl)-3-(2,2,2-trifluoroethyl)-1H-indol-5-yl)-5-(piperidin-3-yl)-1,3,4-oxadiazole] the same measures were 47 nM, 1270 nM and 25 nM.
For the molecule `Cc1cc(-c2[nH]c3ccc(-c4nnc(C(=O)NC5CCN(C(C)C)CC5)o4)cc3c2C(C)C)ccn1` [Example 58, 5-(3-isopropyl-2-(2-methylpyridin-4-yl)-1H-indol-5-yl)-N-(1-isopropylpiperidin-4-yl)-1,3,4-oxadiazole-2-carboxamide], the half-inhibitory concentration (IC50) against human TLR7 stood at 50 nM; at human TLR9, 303 nM; against human TLR8, 3.8 nM.
In the same order, the values of `COc1ccc(-c2[nH]c3ccc(-c4nnc(C(=O)NC5CCN(C(C)C)CC5)o4)cc3c2C(C)C)cc1OC` [Example 59, 5-(2-(3,4-dimethoxyphenyl)-3-isopropyl-1H-indol-5-yl)-N-(1-isopropylpiperidin-4-yl)-1,3,4-oxadiazole-2-carboxamide] are 55 nM, 936 nM and 6.2 nM.
For `Cc1cc(-c2[nH]c3ccc(-c4nnc(C(=O)N5CC6CNCC6C5)o4)cc3c2C(C)C)ccn1` (stereo not drawn) [Example 60, (hexahydropyrrolo[3,4-c]pyrrol-2(1H)-yl)(5-(3-isopropyl-2-(2-methylpyridin-4-yl)-1H-indol-5-yl)-1,3,4-oxadiazol-2-yl)methanone] the same measures were 194 nM, 283 nM and 6 nM.
In the same order, the values of `COc1ccc(-c2[nH]c3ccc(-c4nnc(C(=O)N5CC6CNCC6C5)o4)cc3c2C(C)C)cc1OC` (stereo not drawn) [Example 61, (5-(2-(3,4-dimethoxyphenyl)-3-isopropyl-1H-indol-5-yl)-1,3,4-oxadiazol-2-yl)(hexahydropyrrolo[3,4-c]pyrrol-2(1H)-yl)methanone] are 51 nM, 454 nM and 6.9 nM.
In the case of `Cc1cc(-c2[nH]c3ccc(-c4nnc(C5CCN(C(=O)CN(C)C)CC5)o4)cc3c2C(C)C)ccn1` [Example 62, 2-(dimethylamino)-1-(4-(5-(3-isopropyl-2-(2-methylpyridin-4-yl)-1H-indol-5-yl)-1,3,4-oxadiazol-2-yl)piperidin-1-yl)ethan-1-one], the IC50 against human TLR7 was found to be 31 nM; at human TLR9 it was 743 nM; against human TLR8 it was 2.2 nM.
In the same order, the values of `COc1ccc(-c2[nH]c3ccc(-c4nnc(C)o4)cc3c2C(C)C)cc1OC` [Example 63, 2-(2-(3,4-dimethoxyphenyl)-3-isopropyl-1H-indol-5-yl)-5-methyl-1,3,4-oxadiazole] are 483 nM, > 50000 nM and 235 nM.
Regarding `COc1ccc(-c2[nH]c3ccc(-c4nnc(CC(F)(F)F)o4)cc3c2C(C)C)cc1OC` [Example 64, 2-(2-(3,4-dimethoxyphenyl)-3-isopropyl-1H-indol-5-yl)-5-(2,2,2-trifluoroethyl)-1,3,4-oxadiazole], the IC50 against human TLR7 is 1040 nM; at human TLR9, > 50000 nM; on human TLR8 it was 340 nM.
For `Cc1cc(-c2[nH]c3ccc(-c4nnc(C5CCN(CC(=O)N(C)C)CC5)o4)cc3c2C(C)C)ccn1` [Example 65, 2-(4-(5-(3-isopropyl-2-(2-methylpyridin-4-yl)-1H-indol-5-yl)-1,3,4-oxadiazol-2-yl)piperidin-1-yl)-N,N-dimethylacetamide] the same measures were 97 nM, 2000 nM and 2.9 nM.
For `Cc1cc(-c2[nH]c3ccc(-c4nnc(C5CCNCC5)o4)cc3c2C(C)C)ccn1` [Example 66, 2-(3-isopropyl-2-(2-methylpyridin-4-yl)-1H-indol-5-yl)-5-(piperidin-4-yl)-1,3,4-oxadiazole] the same measures were 53 nM, 2310 nM and 38 nM.
For `CNCCN1CCC(c2nnc(-c3ccc4[nH]c(-c5ccc(OC)c(OC)c5)c(CC(F)(F)F)c4c3)o2)CC1` [Example 67, 2-(4-(5-(2-(3,4-dimethoxyphenyl)-3-(2,2,2-trifluoroethyl)-1H-indol-5-yl)-1,3,4-oxadiazol-2-yl)piperidin-1-yl)-N-methylethan-1-amine] the same measures were 244 nM, 316 nM and 57 nM.
Turning to `Cc1cc(-c2[nH]c3ccc(-c4nnc([C@@H]5CSCN5)o4)cc3c2C(C)C)ccn1` [Example 68, (R)-2-(3-isopropyl-2-(2-methylpyridin-4-yl)-1H-indol-5-yl)-5-(thiazolidin-4-yl)-1,3,4-oxadiazole], the values for the IC50 at human TLR7, at human TLR9 and against human TLR8 were 320 nM, 31600 nM and 41 nM, respectively.
With `Cc1cc(-c2[nH]c3ccc(-c4nnc([C@H]5CCCNC5)o4)cc3c2C(C)C)ccn1` [Example 69, (S)-2-(3-isopropyl-2-(2-methylpyridin-4-yl)-1H-indol-5-yl)-5-(piperidin-3-yl)-1,3,4-oxadiazole], the half-inhibitory concentration (IC50) amounted to 16 nM against human TLR7, 687 nM at human TLR9 and 0.9 nM against human TLR8.
For `Cc1cc(-c2[nH]c3ccc(-c4nnc(C5CNCCO5)o4)cc3c2C(C)C)ccn1` (stereo not drawn) [Example 70, 2-(5-(3-isopropyl-2-(2-methylpyridin-4-yl)-1H-indol-5-yl)-1,3,4-oxadiazol-2-yl)morpholine], the IC50 at human TLR7 stood at 38 nM; at human TLR9 it was 5040 nM; against human TLR8 it was 6.7 nM.
For `Cc1cc(-c2[nH]c3ccc(-c4nnc(C[C@@H]5CCCN5)o4)cc3c2C(C)C)ccn1` [Example 71, (S)-2-(3-isopropyl-2-(2-methylpyridin-4-yl)-1H-indol-5-yl)-5-(pyrrolidin-2-ylmethyl)-1,3,4-oxadiazole] the same measures were 39 nM, 6910 nM and 1.4 nM.
